Measurements published in patent US20120046258A1, “NOVEL CRYSTALLINE PHARMACEUTICAL PRODUCT” (GLAXO GROUP LIMITED, priority 2005, published 2012).

Assay: Anderson Cascade impaction analysis of dry powder blend in blister strip
Type: physicochemical
Details: 0.8% w/w drug in milled lactose blend, 13 mg per blister
Procedure: A blend was prepared containing 0.8% w/w 6α,9α-difluoro-17α-[(2-furanylcarbonyl)oxy]-11β-hydroxy-16α-methyl-3-oxo-androsta-1,4-diene-17β-carbothioic acid S-fluoromethyl ester, prepared as particles according to the invention, and 99.2% w/w milled lactose (wherein the mean particle size is of the range 60-90 μm, and not greater than 15% of particles have a MMD of less than 15 μm).
The above composition was blended for 10 minutes at 600 rpm in a 2.5 litre bowl QMM Micromixer. A peelable blister strip containing 14 blisters, each filled with 13 mg of the powder formulation described above was prepared.
Anderson Cascade impaction analysis of this product was performed initially and after 1 month storage at 30° C. and 65% relative humidity as shown in Table 1 below.

C[C@]12C[C@H](O)[C@@]3(F)C(C[C@H](F)C4=CC(=O)C=C[C@@]43C)C1C[C@](C)(OC(=O)c1ccco1)[C@@H]2C(=O)SCF (some centres unmarked) [Micronised Drug, reference compound]
Respirable fraction (% of Total Emitted Dose) (1 month @ 30° C./65% Relative Humidity): 25.1 % of Total Emitted Dose
Respirable fraction (% of Total Emitted Dose) (Initial): 26.6 % of Total Emitted Dose
